Measurements taken from patent US9145376B2, “Quinazolinone inhibitors of dynein” (The Rockefeller University, priority 2011, dated 2015).

Columns and labels:
[1] = test system: Gli3 processing in Shh-EGFP cells; experiment: Quantitative assessment of Hh ligand-dependent Gli3 processing; format: cell-based; conditions: Shh-EGFP cells stimulated with Shh-N, 16 hours
Method: Shh-EGFP cells were seeded into 12-well plate at a density of 120,000 cells/well in DMEM containing 10% calf serum. 100 U/mL penicillin, and 0.1 mg/mL streptomycin. After being cultured for 24 hours, the cells were transferred into DMEM containing 0.5% calf serum, 10% Shh-conditioned medium, the antibiotics described above, and either individual compounds or DMSO. The cells were cultured for an additional 16 hours, washed with PBS, and then lysed by incubation on ice with SDS-PAGE loading buffer composed of 8% glycerol, 20 mM Tris-HCl, pH 6.8, 2% SDS, 100 mM DTT, 1 mM PMSF, 20 mM NaF, 2 mM Na3VO4, and an EDTA-free protease inhibitor cocktail (Roche). The lysed samples were heated to 100° C. for 7 minutes, loaded onto 3-8% Criterion XT Tris-Acetate polyacrylamide gels (Bio-Rad), electrophoresed in XT Tricine buffer (Bio-Rad), and transferred onto PVDF membranes. The membranes were dehydrated with methanol and probed overnight at 4° C. with goat polyclonal anti-Gli3 antibody (0.4 μg/mL: R & D Systems, AF3690) in PBS containing 4% non-fat dry milk and 0.1% Tween-20 (immunoblot blocking buffer). The blots were then washed 4×1 minutes in PBS and incubated with horseradish peroxidase-conjugated bovine polyclonal anti-goat IgG antibody (0.04 μg/mL, Jackson ImmunoResearch, 805-035-180) in immunoblot blocking buffer for 1 hour at room temperature. The membranes were next washed 4×1 minutes in PBS and visualized using SuperSignal West Dura Extended Duration substrate (Thermo Scientific) and a ChemiDoc XRS imaging system (Bio-Rad). Band intensities of Gli3FL and Gli3R where quantified using Quantity One software (Bio-Rad), and five independent experiments were used to determine the average Gli3FL/Gli3R ratio for each compound.

[2] = molecular target: T1, K560, N-terminal fragment of human conventional kinesin (kinesin-1) (Homo sapiens, UniProt P33176); experiment: Microtubule surface gliding assay, K560/kinesin-1; format: biochemical; conditions: 100 μM
T1 construct: K560, a 560-amino acid N-terminal fragment of human conventional kinesin (kinesin-1); His-tag (C); made in house; host or cells: bacteria
T1 sequence (P33176 1-560): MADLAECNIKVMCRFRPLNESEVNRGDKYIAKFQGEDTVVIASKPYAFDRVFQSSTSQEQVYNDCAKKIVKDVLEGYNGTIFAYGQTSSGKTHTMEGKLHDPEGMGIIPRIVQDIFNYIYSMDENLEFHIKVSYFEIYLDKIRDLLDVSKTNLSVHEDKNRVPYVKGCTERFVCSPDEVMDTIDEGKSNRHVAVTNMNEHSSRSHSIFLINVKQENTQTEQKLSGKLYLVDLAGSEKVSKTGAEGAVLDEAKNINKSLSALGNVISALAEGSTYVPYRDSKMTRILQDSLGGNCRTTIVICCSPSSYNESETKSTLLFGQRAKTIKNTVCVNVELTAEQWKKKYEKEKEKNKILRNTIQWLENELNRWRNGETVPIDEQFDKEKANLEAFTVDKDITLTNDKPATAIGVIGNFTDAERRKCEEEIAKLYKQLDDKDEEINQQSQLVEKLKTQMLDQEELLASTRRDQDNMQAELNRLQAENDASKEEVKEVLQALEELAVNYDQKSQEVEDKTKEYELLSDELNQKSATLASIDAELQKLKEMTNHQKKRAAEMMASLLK
Method: Cytoplasmic dynein was purified from bovine brains as described by Bingham et al. [Methods Enzymol. 298, 171 (1998)]. K560, a 560-amino acid N-terminal fragment of human conventional kinesin (kinesin-1) with a C-terminal His-tag, was expressed in bacteria and purified as described by Woehlke et al., [Cell 90, 207 (1997)]. Motility assays were performed on a Zeiss Axiovert 200M wide-field microscope equipped with a Zeiss 100×/1.45 NA α-Plan-Fluar objective. Data were captured with an EM-CCD camera (iXon DU-897, Andor Technology) with a 0.3-second exposure time and frame rate of 0.5 second^−1. Microtubule gliding assays were performed as described by Kapoor and Mitchison [Proc. Natl. Acad. Sci. U.S.A. 96, 9106 (1999)] with some modifications. An approximately 6 μL flow chamber was filled with motor protein (100 μg/mL dynein or 50 μg/mL K560) in motor dilution buffer (80 mM Pipes, 1 mM EGTA, 2 mM MgCl2, 2 mM DTT, 50 μM ATP, pH 6.8 with KOH). […] After allowing the microtubules to bind to the surface for 5 minutes, the gliding microtubules were visualized by time-lapse fluorescence microscopy. Velocities were measured by kymography using Metamorph software (Molecular Devices), and the velocity for each microtubule was determined from the total distance during the time observed.

[3] = test system: primary cilia of Shh-EGFP cells; experiment: Quantitative assessment of ciliogenesis (Arl13b staining, cilia size); format: cell-based; conditions: 24 hours

| Compound | Gli3FL/Gli3R ratio [1] | Shh-N-dependent Gli3FL phosphorylation [1] | K560/kinesin-1-dependent microtubule gliding [2] | cilia size in response to increasing concentration (FIG. 1) [3] |
| --- | --- | --- | --- | --- |
| N#C/C(C(=O)c1ccc(Cl)cc1Cl)=C1\NC(=O)c2ccccc2N1 [Example 1, 3-(2,4-dichlorophenyl)-3-oxo-2-(4-oxo-3,4-dihydroquinazolin-2(1H)-ylidene)propanenitrile] | altered the Gli3FL/Gli3R ratio | reduced | Neither ciliobrevin significantly affected | dose-dependent decrease in cilia size |
| N#C/C(C(=O)c1ccccc1)=C1\NC(=O)c2ccccc2N1 [Example 16, 3-oxo-2-(4-oxo-3,4-dihydroquinazolin-2(1H)-ylidene)-3-phenylpropanenitrile] | – | – | – | no decrease in cilia size |
| N#C/C(C(=O)c1ccc(Cl)cc1Cl)=C1\NC(=O)c2ccc(Cl)cc2N1 [Example 31, 2-(7-chloro-4-oxo-3,4-dihydroquinazolin-2(1H)-ylidene)-3-(2,4-dichlorophenyl)-3-oxo-propanenitrile] | altered the Gli3FL/Gli3R ratio | reduced | Neither ciliobrevin significantly affected | – |
